Measurements: US5679671A, “Amino acid derivative” (Eisai Co., Ltd., priority 1993, dated 1997)

Assays:
SHR [1] = assay: Hypotensive effect on SHR, i.v. (Experiment D-2); assay type: in vivo, Spontaneously hypertensive rats
Experimental: (§1) Spontaneously hypertensive rats (SHR) aged 15 to 20 weeks were anesthetized by intraperitoneally administering thiopental sodium (50 mg/kg). The depth of anesthesia was maintained by optionally effecting supplemental anesthesia (5 mg/kg, i.v.). Catheters were inserted into the left common carotid artery and the vein respectively for the measurement of blood pressure and for the administration of a medicament. The cardiac rate was counted by using blood pressure as a trigger.
When the blood pressure became stable after the completion of the operation, the comparative compound or the compound of Example 9 was intravenously administered in doses of 0.1, 0.3 and 1.0 mg/kg and changes in blood pressure and cardiac rate were measured. Following the administration, the measurement was effected for 10 minutes in the cases of 0.1 and 0.3 mg/kg or for 30 minutes in the case of 1.0 mg/kg.

ACE = biological target: T1, ACE (Rattus norvegicus, UniProt P47820); assay: ACE inhibition activity (Experiment D-1); assay type: biochemical; settings: rat lung membrane fraction, pH 8.3
T1 construct: membrane fraction prepared from rat lung; from tissue; host or cells: rat lung, membrane fraction (method of Wu-Wong et al.)
T1 sequence (P47820 36-1313): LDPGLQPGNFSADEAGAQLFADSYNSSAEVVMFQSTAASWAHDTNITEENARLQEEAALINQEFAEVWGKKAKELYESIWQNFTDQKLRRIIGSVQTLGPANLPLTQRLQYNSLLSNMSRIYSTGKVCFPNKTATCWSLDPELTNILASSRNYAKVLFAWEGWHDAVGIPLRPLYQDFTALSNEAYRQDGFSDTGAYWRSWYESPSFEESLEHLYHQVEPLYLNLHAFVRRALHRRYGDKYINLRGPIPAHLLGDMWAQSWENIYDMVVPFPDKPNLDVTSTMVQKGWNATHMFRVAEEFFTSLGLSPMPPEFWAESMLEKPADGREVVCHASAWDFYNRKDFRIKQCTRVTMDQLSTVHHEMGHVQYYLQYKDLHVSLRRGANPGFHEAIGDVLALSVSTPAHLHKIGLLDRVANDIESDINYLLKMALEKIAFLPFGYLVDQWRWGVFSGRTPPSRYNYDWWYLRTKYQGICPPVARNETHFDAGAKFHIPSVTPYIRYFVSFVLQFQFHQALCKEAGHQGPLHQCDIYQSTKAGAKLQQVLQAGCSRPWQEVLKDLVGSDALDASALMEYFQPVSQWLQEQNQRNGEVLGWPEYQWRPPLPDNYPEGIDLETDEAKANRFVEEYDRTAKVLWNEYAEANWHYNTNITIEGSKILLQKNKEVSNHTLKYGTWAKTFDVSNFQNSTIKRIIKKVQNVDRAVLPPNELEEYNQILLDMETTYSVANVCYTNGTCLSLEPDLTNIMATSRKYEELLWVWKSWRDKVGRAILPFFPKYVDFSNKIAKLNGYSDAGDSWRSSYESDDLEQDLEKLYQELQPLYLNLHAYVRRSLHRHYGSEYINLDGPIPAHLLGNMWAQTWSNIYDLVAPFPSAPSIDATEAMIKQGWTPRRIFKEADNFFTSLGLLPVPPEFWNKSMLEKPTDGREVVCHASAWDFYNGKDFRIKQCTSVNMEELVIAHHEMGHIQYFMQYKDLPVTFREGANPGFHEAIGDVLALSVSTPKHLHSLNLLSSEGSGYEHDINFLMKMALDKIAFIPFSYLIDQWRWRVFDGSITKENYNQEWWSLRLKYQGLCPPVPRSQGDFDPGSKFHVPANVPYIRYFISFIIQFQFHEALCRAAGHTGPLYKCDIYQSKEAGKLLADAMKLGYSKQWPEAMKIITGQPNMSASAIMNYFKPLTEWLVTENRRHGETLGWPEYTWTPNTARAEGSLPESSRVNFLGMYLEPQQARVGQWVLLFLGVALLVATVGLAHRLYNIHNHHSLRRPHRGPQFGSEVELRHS
Experimental: As a source of the enzyme ACE, a membrane fraction prepared from rat lung in accordance with the method of Wu-Wong et al. (Characterization of Endthelin Converting Enzyme in Rat Lung., Junshyum R. Wu-Wong, Gerald, P. Budzik, Edward M. Devine and Terry J. Opgenorth, Biochem. Biophys. Res. Commun., 1990, 171, 1291-1296.) was used. The ACE activity was determined with the use of a modification (modified to a borate buffer, pH 8.3) of the method of Cushman and Cheung (Spectrophotometric Assay and Properties of the Angiotensin-Converting Enzyme of Rabbit Lung., Cushman D. W. and Cheung H. S., 1971, 20, 1637-1648.). Now the procedure will be briefly described.
In the presence of ACE, the hippurate liberated from hippuryl-histidine-leucine (Hippuryl-His-Leu (Peptide Institute Inc., Japan)) was extracted with ethyl acetate and then the absorbance was measured at a wavelength of 228 nm.
(§2) To determine the NEP inhibition activity and the ACE inhibition activity, the inhibitor was added to the assay systems of both enzyme activities as described above in such a manner as to give the final concentrations of 1, 3, 10, 30, 100, 300 and 1000 nM and inhibition curves were prepared. Then the concentration at which 50% inhibition was achieved was taken as IC50.

NEP = biological target: T2, NEP (Rattus norvegicus, UniProt P07861); assay: NEP inhibition activity (Experiment D-1); assay type: biochemical; design: membrane fraction prepared from rat renal cortex; from tissue; host or cells: rat renal cortex, membrane fraction (method of Booth and Kenny); settings: rat renal cortex membrane fraction
T2 sequence (P07861 1-750): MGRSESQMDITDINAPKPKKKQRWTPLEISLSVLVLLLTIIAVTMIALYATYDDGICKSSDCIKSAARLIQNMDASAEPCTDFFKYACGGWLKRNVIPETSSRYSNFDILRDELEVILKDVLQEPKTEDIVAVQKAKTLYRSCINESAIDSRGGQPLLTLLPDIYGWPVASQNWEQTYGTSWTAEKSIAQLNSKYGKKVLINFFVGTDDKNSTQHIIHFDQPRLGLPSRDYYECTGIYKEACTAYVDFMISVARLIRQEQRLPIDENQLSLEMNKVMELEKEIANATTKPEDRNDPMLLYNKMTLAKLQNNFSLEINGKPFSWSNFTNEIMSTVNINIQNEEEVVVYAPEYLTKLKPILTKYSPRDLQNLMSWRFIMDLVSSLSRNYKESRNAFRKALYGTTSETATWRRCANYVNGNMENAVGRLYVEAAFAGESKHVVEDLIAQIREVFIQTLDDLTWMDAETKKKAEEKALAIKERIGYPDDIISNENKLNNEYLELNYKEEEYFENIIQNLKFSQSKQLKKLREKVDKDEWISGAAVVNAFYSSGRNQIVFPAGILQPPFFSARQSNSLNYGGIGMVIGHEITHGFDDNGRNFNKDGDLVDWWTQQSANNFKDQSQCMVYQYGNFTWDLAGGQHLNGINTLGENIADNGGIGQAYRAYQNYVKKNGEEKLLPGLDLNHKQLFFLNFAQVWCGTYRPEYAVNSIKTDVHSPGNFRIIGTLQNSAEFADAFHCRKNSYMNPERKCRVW
Experimental: As a source of the enzyme NEP, a membrane fraction prepared from rat renal cortex in accordance with the method of Booth and Kenny (A Rapid Method for the Purification of Microvilli from Rabbit Kidney., Andrew G. Booth and A. John Kenny, Biochem. j., 1974, 142, 575-581.) was employed. The NEP activity was determined in accordance with the method of Orlowsky and Wilk (Purification and Specificity of a Membrane-Bound Metalloendpeptidase from Bovine Pituitaries., Marian Orlowsky and Shrwin Wilk, Biochemistry, 1981, 20, 4942-4950.). Now the procedure will be briefly described.
As a substrate, benzoyl-glycine-arginine-arginine-2-naphthylamide benzoyl-Gly-Arg-Arg-2-naphthylamide (Nova Biochem, Switzerland)) was used. In the presence of an NEP enzyme preparation and excessive leucine aminopeptidase (sigma chemical Co., U.S.A.), the liberated naphthylamine was made to undergo color development with first garnet (Sigma chemical Co., U.S.A.), followed by the measurement of the absorbance at a wavelength of 540 nm.
as §2

SHR [2] = assay: Hypotensive effect on SHR, i.v. (Experiment C-5); assay type: in vivo, rat (SHR)
Experimental: as §1, with “SHRs” for “Spontaneously hypertensive rats (SHR)”
When the blood pressure became stable after the completion of the operation, the comparative compound was intravenously administered in 0.1, 0.3 and 1.0 mg/kg and changes in blood pressure and cardiac rate were measured. Following the administration, the measurement was effected for 10 minutes in the cases of 0.1 and 0.3 mg/kg or for 30 minutes in the case of 1.0 mg/kg. The invention compound was intravenously administered in 0.03, 0.1 and 0.3 mg/kg and the measurement was effected for 10 minutes after the administration in the cases of 0.03 and 0.1 mg/kg or for 30 minutes after the administration in the case of 0.3 mg/kg.

SHR [3] = assay: Hypotensive effect on SHR through intravenous administration (separate experiment); assay type: in vivo; settings: Rattus norvegicus, read-out: dose to decrease the blood pressure by 10%
Description: In addition to the above-mentioned Pharmacological Experiment Examples, an experiment was separately effected with the use of SHR for examining hypotensive effects through intravenous administration. As the result, in the comparison of the conventionally known double inhibitors (1) [S-(R*,R*)]-2,3,4,5-tetrahydro-3-[(2-mercapto-[…])amino]-2-oxo-1H-benzazepine-1-acetic acid and (2) [S-(R*,R*)]-2,3,4,5-tetrahydro-3-[(2-mercapto-1-oxo-4-methylpentyl)amino]- 2-oxo-1H-benzazepine-1-acetic acid with the compounds of the present invention, Example C-8 and Example C-10, the inhibitors (1) and (2) should be administered each in a dose of 1.0 mg/kg to decrease the blood pressure by 10%, whereas the administration of 0.03 to 0.1 mg/kg of the compound of Example C-8 and the administration of 0.1 to 0.3 mg/kg of the compound of Example C-10 each achieved the same effect.

[4] = within 30 minutes after i.v. administration

SMILES | IC50 (ACE) | IC50 (NEP) | cardiac rate (SHR [1]; SHR, i.v.) | ED (10% decrease in blood pressure) (SHR [3]) | further results
O=C(N[C@H]1Cc2ccccc2[C@H]2CCC[C@@H](C(=O)O)N2C1=O)[C@@H](S)Cc1ccccc1 [comparative compound, reference compound] |  |  | tended to gradually decrease |  | return of blood pressure (SHR [1]; [4]): did not return within 30 minutes; cardiac rate (SHR [2]; SHR, i.v.): tended to gradually decrease; return of blood pressure (SHR [2]; [4]): did not return within 30 minutes
O=C(O)CN1C(=O)[C@@H](NC(=O)[C@@H](S)Cc2ccccc2)CCc2ccccc21 [inhibitor (1)] |  |  |  | 1 mg/kg | 
CC(C)C[C@H](S)C(=O)N[C@H]1CCc2ccccc2N(CC(=O)O)C1=O [inhibitor (2), [S-(R*,R*)]-2,3,4,5-tetrahydro-3-[(2-mercapto-1-oxo-4-methylpentyl)amino]-2-oxo-1H-benzazepine-1-acetic acid] |  |  |  | 1 mg/kg | 
COc1ccc(CC(S)C(=O)N[C@H]2Cc3ccccc3[C@H]3SC[C@H](C(=O)O)N3C2=O)cc1 (stereo partly drawn) [Comp. cpd.*^1] | 11 nM | 14 nM |  |  | 

Continued, in another order:

IC50 (ACE) | IC50 (NEP) | SMILES | cardiac rate (SHR [1]; SHR, i.v.) | ED (10% decrease in blood pressure) (SHR [3]) | further results
12 nM | 38 nM | COc1ccc(C[C@H](S)C(=O)N[C@H]2Cc3ccc(NS(C)(=O)=O)cc3[C@H]3CCC[C@@H](C(=O)O)N3C2=O)cc1 [Example D-6, [4S-[4α,7α(R*),12bβ]]-11-methylsulfonylamino-7-[[(S)-2-mercapto-3-(4-methoxyphenyl)-1-oxopropyl]amino-6-oxo-1,2,3,4,6,7,8,12b-octahydropyrido-[2,1-a][2]benzazepine-4-carboxylic acid] | tended to gradually decrease |  | decrease in blood pressure / hypotensive effect (SHR [1]; 1.0 mg/kg i.v.): 25%; hypotensive effect on SHR relative to the comparative compound (SHR [1]; SHR, i.v.): about three times that of the comparative compound
17 nM | 33 nM | CS(=O)(=O)Nc1ccc2c(c1)[C@H]1CCC[C@@H](C(=O)O)N1C(=O)[C@@H](NC(=O)[C@@H](S)Cc1ccccc1)C2 [Example D-5, [4S-[4α,7α(R*),12bβ]]-11-methylsulfonylamino7-[[(S)-2-mercapto-3-phenyl-1-oxopropyl)amino-6-oxo-1,2,3,4,6,7,8,12b-octahydropyrido-[2,1-a][2]benzazepine-4-carboxylic acid] |  |  | 
